Data: the NIST ThermoML archive (doi:10.1021/je101232g)
Numbers after ± are expanded uncertainties.

Settings: Liquid

CCCCCCCCCCCCCC[P+](CCCCCC)(CCCCCC)CCCCCC.O=S(=O)([N-]S(=O)(=O)C(F)(F)F)C(F)(F)F
mass density [kg/m3]
Settings	283.15 K	293.15 K	303.15 K	313.15 K	323.15 K	333.15 K
100 kPa	1077.4 ± 0.8	1070 ± 0.7	1062.7 ± 0.7	1055.4 ± 0.7	1048 ± 0.7	1040.8 ± 0.6
1000 kPa	1077.9 ± 0.8	1070.5 ± 0.8	1063.3 ± 0.7	1056 ± 0.7	1048.7 ± 0.7	1041.5 ± 0.7
2000 kPa	1078.4 ± 0.8	1071.2 ± 0.8	1063.9 ± 0.8	1056.7 ± 0.7	1049.3 ± 0.7	1042.2 ± 0.7
3000 kPa	1079 ± 0.8	1071.8 ± 0.8	1064.5 ± 0.8	1057.3 ± 0.8	1050.1 ± 0.7	1042.9 ± 0.7
4000 kPa	1079.6 ± 0.9	1072.3 ± 0.8	1065.2 ± 0.8	1057.9 ± 0.8	1050.7 ± 0.7	1043.6 ± 0.7
5000 kPa	1080.2 ± 0.9	1072.9 ± 0.9	1065.8 ± 0.8	1058.6 ± 0.8	1051.4 ± 0.8	1044.4 ± 0.7
10000 kPa	1083 ± 1	1075.9 ± 1	1068.8 ± 0.9	1061.7 ± 0.9	1054.7 ± 0.9	1047.8 ± 0.8
15000 kPa	1085.6 ± 1.2	1078.6 ± 1.1	1071.8 ± 1.1	1064.9 ± 1	1057.9 ± 1	1051.2 ± 0.9
20000 kPa	1088.3 ± 1.3	1081.4 ± 1.3	1074.7 ± 1.2	1067.8 ± 1.1	1061 ± 1.1	1054.3 ± 1
25000 kPa	1090.8 ± 1.5	1084 ± 1.4	1077.4 ± 1.4	1070.7 ± 1.3	1064 ± 1.2	1057.4 ± 1.1
30000 kPa	1093.3 ± 1.7	1086.6 ± 1.6	1080.1 ± 1.5	1073.5 ± 1.4	1066.9 ± 1.3	1060.4 ± 1.3
35000 kPa	1095.6 ± 1.8	1089.1 ± 1.7	1082.7 ± 1.7	1076.2 ± 1.6	1069.8 ± 1.5	1063.3 ± 1.4
40000 kPa	1097.9 ± 2	1091.5 ± 1.9	1085.1 ± 1.8	1078.8 ± 1.7	1072.4 ± 1.6	1066.2 ± 1.5
45000 kPa	1100.2 ± 2.2	1093.9 ± 2.1	1087.7 ± 2	1081.3 ± 1.9	1075.1 ± 1.8	1068.9 ± 1.7
